Measurements from patent US7312248B2, “Control of parasites in animals by the use of novel trifluoromethanesulfonanilide oxime ether derivatives” (Schering-Plough Animal Health Corporation, priority 2004, dated 2007).

Assays:
Haemonchus contortus = Haemonchus contortus larvacidal (larval development) assay; assay type: in vivo; details: 144 h, read-out: Haemonchus contortus LD99
Outline: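 Nematode eggs placed on agar containing compound (12 two-fold dilutions, final 0.024–50 μg/ml) and left 6 days to develop to L3. LD99 is the lowest concentration inhibiting development of 99% of larvae, derived from well titre (2^n−1) and top concentration.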

[1] = test system: Brown Dog Tick (Rhipicephalus sanguineus); test: Rapid screening protocol for topical application on brown dog ticks; assay type: in vivo; details: 48 h; Laboratory 2 F data

SMILES | IC99 (Haemonchus contortus) | R. sanguineus Mortality (%) 48 h [1]
CC/C(=N\OCc1ccc(C(F)(F)F)cc1)c1cc(Cl)ccc1NS(=O)(=O)C(F)(F)F [Compound 9] | 0.6 µg/mL | 95%
CC/C(=N\OCc1ccc(Cl)cc1)c1cc(Cl)ccc1NS(=O)(=O)C(F)(F)F [Compound 11, N-{4-chloro-2-[1-(4-chlorobenzyloxyimino)propyl]phenyl}trifluoromethanesulfonamide] | 0.7 µg/mL | 97%
